Assay results from patent publication EP1752149A1 (LABORATORIOS DEL DR. ESTEVE, S.A., priority 2005, dated 2007).
Each block holds one compound with its values, some of them ahead of it.

What was measured:
[1] = In-vivo bioassay system for determination of cannabinoid activity (hot-plate test, hypothermia, catalepsy, sedation); conditions: for Agonistic effect A: Hot-Plate test / Agonistic effect B: Hypothermia / Agonistic effect C: Catalepsy / Agonistic effect D: Sedation: 5 mg/kg i.v.
[2] = Cell viability, tetrazolium salt WST-1, unstimulated Jurkat cells; assay type: cell-based; conditions: human, Jurkat (Cont), read-out: percentage of viability
Method: (§1) The viability of the cells was measured by the use of the tetrazolium salt WST-1 (Roche Molecular Biochemicals). Unstimulated Jurkat cells or LPS (5 µg/ml) treated THP-1 cells were incubated for 24 or 18 hours respectively in the presence of increasing doses of the compound according to example 1 (1, 10, 100, 1000 and 10000 nM) and incubated with 10% of WST-1 reagent for 1 hour. Quantification of the formazan dye produced by metabolically active cells was spectrophotometrically measured at 450 nm and a reference wavelength of 630 nm. Data are represented as percentage of viability considering 100% the value of absorbance obtained in the absence of example 1 (Table 1).

[3] = Cell viability, tetrazolium salt WST-1, LPS treated THP-1 cells; assay type: cell-based; conditions: human, THP-1 (LPS 5 µg/ml), read-out: percentage of viability
Method: as §1

[4] = tested on: Nuclear factor of activated T cells (NFAT); assay: NFAT-LUC luciferase reporter, transcriptional activation in Jurkat T cells; assay type: cell-based, human; conditions: Jurkat (PMA+Ion), 6 hours; for IC50: Homo sapiens, approximate value, read-out: NFAT-LUC IC-50
Method: (§2) It was also analyzed how these compounds affect transcriptional induction mediated by the transcription factors Nuclear factor of activated T cells (NFAT) or Nuclear factor (NF)-κB. In these experiments, Jurkat T cells or THP-1 cells were transiently transfected by the Lipofectamine2000 reagent (Invitrogen), with luciferase reporter constructs whose expression are directed by three copies of the Interleukin-2 (IL-2) NFAT responsive element (NFAT-LUC) or by three copies of an NF-κB responsive element (NF-κB-LUC). Cells were treated with increased doses of the compound according to example 1 in the presence or absence of stimulation with the phorbol ester PMA (15 ng/ml) plus the A23187 calcium ionophore (1µM) for 6 hours in Jurkat cells or with LPS (5 µg/ml) for 18 hours in THP-1 cells and luciferase activity was measured in cell lysates. Results obtained are represented as percentage of activation, considering 100% the value of luciferase activity obtained in stimulated cells in the absence of the compound according to example 1. The approximate IC-50 (µM) values for the inhibition of the transcriptional activation of NFAT and NF-κB are also shown (Table 2).

[5] = tested on: Nuclear factor (NF)-κB; assay: NF-κB-LUC luciferase reporter, transcriptional activation in Jurkat T cells; assay type: cell-based, human; conditions: Jurkat (PMA+Ion), 6 hours; for IC50: Homo sapiens, approximate value, read-out: NF-κB -LUC IC-50
Method: as §2

[6] = tested on: Nuclear factor (NF)-κB; assay: NF-κB-LUC luciferase reporter, transcriptional activation in THP-1 cells; assay type: cell-based, human; conditions: THP-1 (LPS), 18 hours; for IC50: Homo sapiens, approximate value, read-out: NF-κB-LUC IC-50
Method: as §2

[7] = tested on: cyclooxygenase-2 (COX-LUC); assay: COX2-LUC promoter luciferase reporter in Jurkat T cells; assay type: cell-based, human; conditions: Jurkat (PMA+Ion); for IC50: Homo sapiens, approximated value, read-out: COX2-LUC IC-50
Method: as §2
(§3) The compound according to example 1 was measured for its ability to regulate gene transcription in immune activation through the modulation of the transcriptional activity of luciferase reporter constructs whose expression is directed by the promoter region of genes involved in the inflammation process and immune activation, such as cyclooxygenase-2 (COX-LUC), tumor necrosis factor α (TNF-LUC), Interleukin-2 (IL-2-LUC), Interleukin-6 (IL-6-LUC) and the inducible Nitric Oxide Synthase (iNOS-LUC). Jurkat T cells or THP-1 cells were transiently transfected with these constructs as described above, and treated with different doses of The compound according to example 1 in the presence or absence of stimulation with PMA plus Ion (Jurkat) or LPS in a similar way as for NFAT-LUC and NFKB-LUC reporter analysis. Results are represented as percentage of activation, considering 100% the value of luciferase activity obtained in stimulated cells in the absence of the compound according to example 1. Approximated IC50 (µM) values obtained for inhibition of the transcriptional activation are summarized in tables 3 (Jurkat) and 4 (THP-1).

[8] = tested on: tumor necrosis factor α (TNF-LUC); assay: TNF-LUC promoter luciferase reporter in Jurkat T cells; assay type: cell-based, human; conditions: Jurkat (PMA+Ion); for IC50: Homo sapiens, approximated value, read-out: TNF-LUC IC-50
Method: as §2, §3

[9] = tested on: Interleukin-2 (IL-2-LUC); assay: IL-2-LUC promoter luciferase reporter in Jurkat T cells; assay type: cell-based, human; conditions: Jurkat (PMA+Ion); for IC50: Homo sapiens, approximated value, read-out: IL-2-LUC IC-50
Method: as §2, §3

[10] = tested on: Interleukin-6 (IL-6-LUC); assay: IL-6-LUC promoter luciferase reporter in Jurkat T cells; assay type: cell-based, human; conditions: Jurkat (PMA+Ion); for IC50: Homo sapiens, approximated value, read-out: IL-6-LUC IC-50
Method: as §2, §3

[11] = tested on: cyclooxygenase-2 (COX-LUC); assay: COX2-LUC promoter luciferase reporter in THP-1 cells; assay type: cell-based, human; conditions: THP-1 (LPS); for IC50: Homo sapiens, approximated value, read-out: COX2-LUC IC-50
Method: as §2, §3

[12] = tested on: tumor necrosis factor α (TNF-LUC); assay: TNF-LUC promoter luciferase reporter in THP-1 cells; assay type: cell-based, human; conditions: THP-1 (LPS); for IC50: Homo sapiens, approximated value, read-out: TNF-LUC IC-50
Method: as §2, §3

[13] = tested on: inducible Nitric Oxide Synthase (iNOS-LUC); assay: iNOS-LUC promoter luciferase reporter in THP-1 cells; assay type: cell-based, human; conditions: THP-1 (LPS); for IC50: Homo sapiens, approximated value, read-out: iNOS-LUC IC-50
Method: as §2, §3

[14] = tested on: TNFα; assay: Inhibition of cytokine production: TNFα secretion by Jurkat T cells, ELISA; assay type: cell-based, human; conditions: Jurkat (PMA+Ion), 24 hours; for IC50: Homo sapiens, approximated value, read-out: TNF IC-50 (µM), inhibition of the cytokine production
Method: (§4) In addition to the transcriptional assays, we have also determined the effects of the compound according to example 1 in the secretion of TNFα and IL-2 to the culture medium. Jurkat T cells were treated with different doses of the compound according to example 1 in the presence or absence of stimulation with PMA plus Ion for 24 hours. Supematants were collected and cytokines were measured by specific ELISA for each cytokine (Bender MedSystems). Results are represented as percentage of cytokine production, considering 100% the maximal levels of cytokine production (pg/ml) obtained in PMA+lon stimulated Jurkat cells in the absence of the compound according to example 1.

[15] = tested on: IL-2; assay: Inhibition of cytokine production: IL-2 secretion by Jurkat T cells, ELISA; assay type: cell-based, human; conditions: Jurkat (PMA+Ion), 24 hours; for IC50: Homo sapiens, approximated value, read-out: IL-2 IC-50 (µM), inhibition of the cytokine production
Method: as §4

[16] = 5 mg/kg i.v. prior to Win 55212-2 in a dose of 1,25mg/kg i.v.

SMILES: O=C(NN1CCCCC1)C1=NN(c2ccc(Cl)cc2Cl)C(c2ccc(Cl)cc2)C1 (stereo not shown) [Example 1, N-piperidinyl-5-(4-chlorophenyl)-1-(2,4-dichlorophenyl)-4,5-dihydro-1H-pyrazole-3-carboxamide]
Agonistic effect A: Hot-Plate test [1]: 0
Agonistic effect B: Hypothermia [1]: 0
Agonistic effect C: Catalepsy [1]: 0
Agonistic effect D: Sedation [1]: 0
Antagonistic Effect B: Hypothermia [1, 16]: 100
Antagonistic Effect C: Catalepsy [1, 16]: 100
Antagonistic Effect D: Sedation [1, 16]: 100
viability at 24 h, 0.01 µM ([2]; 10 nM): 92.6%
viability at 24 h, 0.1 µM ([2]; 100 nM): 95.4%
viability at 24 h, 1 µM ([2]; 1000 nM): 96.3%
viability at 24 h, 10 µM ([2]; 10000 nM): 97.7%
viability at 18 h, 0.01 µM ([3]; 10 nM): 105%
viability at 18 h, 1 µM ([3]; 1000 nM): 110%
viability at 18 h, 10 µM ([3]; 10000 nM): 80.2%
IC50 [4]: 3000 nM
NFAT-LUC percentage of activation ([4]; 0.01 µM): 72.4%
NFAT-LUC percentage of activation ([4]; 1 µM): 56.8%
NFAT-LUC percentage of activation ([4]; 10 µM): 7.4%
IC50 [5]: 7000 nM
NF-κB-LUC percentage of activation ([5]; 0.01 µM): 94.7%
NF-κB-LUC percentage of activation ([5]; 1 µM): 74.4%
NF-κB-LUC percentage of activation ([5]; 10 µM): 39.3%
IC50 [6]: 6000 nM
NF-κB-LUC percentage of activation ([6]; 0.01 µM): 100.4%
NF-κB-LUC percentage of activation ([6]; 1 µM): 104.6%
NF-κB-LUC percentage of activation ([6]; 10 µM): 3.4%
IC50 [7]: 8000 nM
COX2-LUC percentage of activation ([7]; 0.01 µM): 102.7%
COX2-LUC percentage of activation ([7]; 1 µM): 93.2%
COX2-LUC percentage of activation ([7]; 10 µM): 31.5%
IC50 [8]: 100 nM
TNF-LUC percentage of activation ([8]; 0.01 µM): 59.5%
TNF-LUC percentage of activation ([8]; 1 µM): 29.9%
TNF-LUC percentage of activation ([8]; 10 µM): 13.7%
IC50 [9]: 1000 nM
IL-2-LUC percentage of activation ([9]; 0.01 µM): 85.9%
IL-2-LUC percentage of activation ([9]; 1 µM): 49.0%
IL-2-LUC percentage of activation ([9]; 10 µM): 9.9%
IC50 [10]: 4000 nM
IL-6-LUC percentage of activation ([10]; 0.01 µM): 82.3%
IL-6-LUC percentage of activation ([10]; 1 µM): 61.8%
IL-6-LUC percentage of activation ([10]; 10 µM): 18.6%
IC50 [11]: 2000 nM
COX2-LUC percentage of activation ([11]; 0.01 µM): 102.7%
COX2-LUC percentage of activation ([11]; 1 µM): 59.6%
COX2-LUC percentage of activation ([11]; 10 µM): 6.8%
IC50 [12]: 3000 nM
TNF-LUC percentage of activation ([12]; 0.01 µM): 104.4%
TNF-LUC percentage of activation ([12]; 1 µM): 65.4%
TNF-LUC percentage of activation ([12]; 10 µM): 12.7%
IC50 [13]: 4000 nM
iNOS-LUC percentage of activation ([13]; 0.01 µM): 89.5%
iNOS-LUC percentage of activation ([13]; 1 µM): 71.3%
iNOS-LUC percentage of activation ([13]; 10 µM): 13.2%
IC50 [14]: 5 µM
TNF percentage of cytokine production ([14]; 0.01 µM): 79.5%
TNF percentage of cytokine production ([14]; 1 µM): 80.3%
TNF percentage of cytokine production ([14]; 10 µM): 11.5%
IC50 [15]: 6 µM
IL-2 percentage of cytokine production ([15]; 0.01 µM): 97.5%
IL-2 percentage of cytokine production ([15]; 1 µM): 98.7%
IL-2 percentage of cytokine production ([15]; 10 µM): 13.2%

SMILES: O=C(C1=NN(c2ccc(Cl)cc2Cl)C(c2ccc(Cl)cc2)C1)N1CCCCC1 (stereo not shown) [Example 5, [5-(4-Chloro-phenyl)-1-(2,4-dichloro-phenyl)-4,5-dihydro-1H-pyrazol-3-yl]-piperidin-1-yl-methanone]
Agonistic effect A: Hot-Plate test [1]: 0
Agonistic effect B: Hypothermia [1]: 50
Agonistic effect C: Catalepsy [1]: 0
Agonistic effect D: Sedation [1]: 0
Antagonistic Effect A: Hot-Plate test [1, 16]: 50
Antagonistic Effect B: Hypothermia [1, 16]: 40
Antagonistic Effect C: Catalepsy [1, 16]: 20
Antagonistic Effect D: Sedation [1, 16]: 20

IC50 [4]: 200 nM
IC50 [5]: 1000 nM
IC50 [6]: 5000 nM
IC50 [7]: > 10000 nM
IC50 [9]: 100 nM
IC50 [10]: 1000 nM
IC50 [11]: 6000 nM
IC50 [13]: 3000 nM
IC50 [14]: 6 µM
IC50 [15]: 7 µM
SMILES: Cc1c(C(=O)NN2CCCCC2)nn(-c2ccc(Cl)cc2Cl)c1-c1ccc(Cl)cc1 [SR141716, reference compound]
IC50 [8]: 10 nM
IC50 [12]: 3000 nM
